From BindingDB's records for doi:10.3109/14756360902797328 (Rheinische Friedrich-Wilhelms-Universitat Bonn, 2009)

How the values were obtained:
Test in all cases: Inhibition Assay
Papain = target: T1, Papain (Carica papaya, UniProt P00784); details: pH 6.5; 25 °C
T1 sequence (P00784 whole entry): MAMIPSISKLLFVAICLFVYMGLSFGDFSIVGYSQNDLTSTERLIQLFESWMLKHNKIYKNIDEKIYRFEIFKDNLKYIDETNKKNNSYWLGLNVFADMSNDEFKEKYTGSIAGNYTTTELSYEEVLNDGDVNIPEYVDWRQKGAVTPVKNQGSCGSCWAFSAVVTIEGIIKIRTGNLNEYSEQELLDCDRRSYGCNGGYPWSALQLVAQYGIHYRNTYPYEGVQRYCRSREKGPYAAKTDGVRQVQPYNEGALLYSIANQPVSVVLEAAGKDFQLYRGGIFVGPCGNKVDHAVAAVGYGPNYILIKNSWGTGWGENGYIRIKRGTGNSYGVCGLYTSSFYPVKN
Description: Papain enzyme activities were determined by spectrophotometric detection of the product p-nitroaniline at 25 C in a a multicell holder (parallel measurements for each single inhibitor determination) at a wavelength of 405 nm.

Cathepsin K = target: T2, Cathepsin K (Homo sapiens, UniProt P43235); details: pH 5; 37 °C
T2 sequence (P43235 whole entry): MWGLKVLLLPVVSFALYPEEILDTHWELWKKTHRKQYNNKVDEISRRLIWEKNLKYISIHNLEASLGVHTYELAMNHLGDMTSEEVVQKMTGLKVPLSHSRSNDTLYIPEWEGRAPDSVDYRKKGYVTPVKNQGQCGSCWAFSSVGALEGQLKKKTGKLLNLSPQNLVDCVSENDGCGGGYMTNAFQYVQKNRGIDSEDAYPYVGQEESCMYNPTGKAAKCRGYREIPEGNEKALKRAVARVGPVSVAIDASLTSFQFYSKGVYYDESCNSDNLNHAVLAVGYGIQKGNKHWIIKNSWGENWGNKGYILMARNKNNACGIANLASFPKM
Description: (§1) Cathepsin enzyme activities were calculated from kinetic measurements performed by fluorimetric detection of the product 7-amino-4-methylcoumarin at 37 C in a stirred cuvette. The wavelengths for excitation and emission were 360nm and 440nm.

Cathepsin S = Cathepsin S (Homo sapiens, UniProt P25774); details: pH 6.5; 37 °C
Description: as §1

Procathepsin L = Procathepsin L (Bos taurus, UniProt P25975); details: pH 6; 37 °C
Description: as §1

Sequence of Procathepsin L (P25975 whole entry): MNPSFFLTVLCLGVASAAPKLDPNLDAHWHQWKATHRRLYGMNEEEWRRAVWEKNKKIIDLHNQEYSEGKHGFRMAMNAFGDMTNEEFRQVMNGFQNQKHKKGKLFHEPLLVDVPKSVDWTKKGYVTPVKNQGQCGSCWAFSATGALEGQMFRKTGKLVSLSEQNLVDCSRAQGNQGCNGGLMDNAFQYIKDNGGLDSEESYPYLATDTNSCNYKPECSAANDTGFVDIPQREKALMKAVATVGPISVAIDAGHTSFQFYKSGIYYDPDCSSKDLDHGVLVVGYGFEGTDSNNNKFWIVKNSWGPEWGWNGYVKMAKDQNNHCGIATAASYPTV
Sequence of Cathepsin S (P25774 whole entry): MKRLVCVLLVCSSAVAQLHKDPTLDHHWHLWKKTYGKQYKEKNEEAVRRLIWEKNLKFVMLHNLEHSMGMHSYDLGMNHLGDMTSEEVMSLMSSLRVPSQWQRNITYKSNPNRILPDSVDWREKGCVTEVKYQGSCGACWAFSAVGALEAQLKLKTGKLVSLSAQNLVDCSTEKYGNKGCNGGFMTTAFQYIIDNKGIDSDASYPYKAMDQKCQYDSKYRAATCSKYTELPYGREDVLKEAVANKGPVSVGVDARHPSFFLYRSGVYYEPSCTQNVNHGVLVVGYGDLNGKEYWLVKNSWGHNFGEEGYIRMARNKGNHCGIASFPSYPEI

Structure (SMILES) | Ki (Papain) | Ki (Cathepsin K) | Ki (Cathepsin S) | Ki (Procathepsin L)
CSCCC(C#N)NC(=O)[C@H](Cc1ccccc1)NC(=O)OC(C)(C)C (stereo partly specified) [Dipeptide nitrile, 7] | 0.25 µM | 3.6 µM | 0.65 µM | 0.27 µM
C[S+](C)CCC(C#N)NC(=O)[C@H](Cc1ccccc1)NC(=O)OC(C)(C)C (stereo partly specified) [Dipeptide nitrile, 8] |  | 3.8 µM | 0.73 µM | 0.52 µM
CC(C)(C)OC(=O)N[C@@H](Cc1ccccc1)C(=O)N[C@H](C#N)CC#N [Dipeptide nitrile, 10] | 1.1 µM | 6.3 µM | 0.84 µM | 0.9 µM
